Laboratory results reported in PMC9250534, “Synthesis and direct assay of large macrocycle diversities by combinatorial late-stage modification at picomole scale” (Nature Communications, 2022).

These molecules were tested against MDM2 (Homo sapiens, UniProt Q00987) (assay: MDM2 binding screen of Libraries 3 and 4: displacement of fluorescent probe F-M8 at 750 nM macrocycle). Settings: Panel b, Library 3: 63 scaffolds combinatorially acylated with 15 carboxylic acids at 30 picomole scale; displacement of fluorescent peptide probe; macrocycle 750 nM.
MDM2, sequence (Q00987 whole entry): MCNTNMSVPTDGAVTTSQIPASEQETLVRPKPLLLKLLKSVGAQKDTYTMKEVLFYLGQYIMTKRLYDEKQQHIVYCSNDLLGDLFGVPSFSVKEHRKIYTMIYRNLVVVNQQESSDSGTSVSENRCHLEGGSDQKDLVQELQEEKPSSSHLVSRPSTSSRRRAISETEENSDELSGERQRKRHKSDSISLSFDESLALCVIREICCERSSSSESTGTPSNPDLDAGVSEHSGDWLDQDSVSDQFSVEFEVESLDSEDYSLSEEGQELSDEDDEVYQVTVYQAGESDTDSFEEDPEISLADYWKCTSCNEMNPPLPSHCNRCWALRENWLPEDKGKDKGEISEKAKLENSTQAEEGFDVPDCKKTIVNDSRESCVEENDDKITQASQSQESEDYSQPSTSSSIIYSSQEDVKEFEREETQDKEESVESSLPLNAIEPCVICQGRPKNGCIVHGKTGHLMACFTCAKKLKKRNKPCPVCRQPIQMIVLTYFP
Outline: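 Competition with nutlin-3a was run using the fluorescein conjugate. Library members came from scaffolds reacted 6 h at room temperature with carboxylic acids (20 equiv.), HBTU and DABCO in DMSO. Quenching was overnight in Tris-Cl pH 7.4 buffer with 0.01% Tween20.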

Compound	fraction of fluorescent probe displaced
O=C1CN(CCNC(=O)c2ccc(Cl)s2)C(=O)[C@@H]2CN(CCO2)C(=O)CCSSCCNC(=O)[C@H](Cc2cccc3ccccc23)N1 [X-Cop-N-Aeg-1-NaI + Acid 14]	-0.025
O=C1CN(CCNC(=O)c2ccc(Cl)cc2)C(=O)C2CN(CCO2)C(=O)CCSSCCNC(=O)C(Cc2cccc3ccccc23)N1 (stereo not shown) [X-Cop-N-Aeg-1-NaI + Acid 25]	0.008
O=C(C=Cc1ccc(Cl)cc1)NCCN1CC(=O)NC(Cc2cccc3ccccc23)C(=O)NCCSSCCC(=O)N2CCOC(C2)C1=O (stereo not shown) [X-Cop-N-Aeg-1-NaI + Acid 108]	0.048
O=C(/C=C/c1ccc(OCc2ccccc2)cc1)NCCN1CC(=O)N[C@@H](Cc2cccc3ccccc23)C(=O)NCCSSCCC(=O)N2CCO[C@@H](C2)C1=O [X-Cop-N-Aeg-1-NaI + Acid 110]	0.035
O=C1CN(CCNC(=O)c2cccc(Oc3ccccc3)c2)C(=O)[C@@H]2CN(CCO2)C(=O)CCSSCCNC(=O)[C@H](Cc2cccc3ccccc23)N1 [X-Cop-N-Aeg-1-NaI + Acid 111]	-0.00533
CC(Oc1cccc(Cl)c1)C(=O)NCCN1CC(=O)N[C@@H](Cc2cccc3ccccc23)C(=O)NCCSSCCC(=O)N2CCO[C@@H](C2)C1=O (stereo partly shown) [X-Cop-N-Aeg-1-NaI + Acid 113]	0.008
O=C(CCS(=O)(=O)c1ccccc1)NCCN1CC(=O)NC(Cc2cccc3ccccc23)C(=O)NCCSSCCC(=O)N2CCOC(C2)C1=O (stereo not shown) [X-Cop-N-Aeg-1-NaI + Acid 114]	0.015
O=C1CN(CCNC(=O)c2ccc(Cl)s2)C(=O)C2CN(CCO2)C(=O)CCSSCCNC(=O)C(Cc2ccc3ccccc3c2)N1 (stereo not shown) [X-Cop-N-Aeg-2-Nal + Acid 14]	-0.019
O=C1CN(CCNC(=O)c2ccc(Cl)cc2)C(=O)[C@@H]2CN(CCO2)C(=O)CCSSCCNC(=O)[C@H](Cc2ccc3ccccc3c2)N1 [X-Cop-N-Aeg-2-Nal + Acid 25]	0.00133
O=C1CN(CCNC(=O)C2CC2c2ccccc2)C(=O)C2CN(CCO2)C(=O)CCSSCCNC(=O)C(Cc2ccc3ccccc3c2)N1 (stereo not shown) [X-Cop-N-Aeg-2-Nal + Acid 105]	-0.015
O=C(/C=C/c1ccc2ccccc2c1)NCCN1CC(=O)N[C@@H](Cc2ccc3ccccc3c2)C(=O)NCCSSCCC(=O)N2CCO[C@@H](C2)C1=O [X-Cop-N-Aeg-2-Nal + Acid 112]	0.035
O=C1CN(CCNC(=O)c2ccc(Cl)s2)C(=O)[C@@H]2CN(CCO2)C(=O)CCSSCCNC(=O)[C@H](Cc2c[nH]c3cc(Cl)ccc23)N1 [X-Cop-N-Aeg-Cl-Trp + Acid 14]	-0.00533
O=C1CN(CCNC(=O)c2ccc3ccccc3c2)C(=O)[C@@H]2CN(CCO2)C(=O)CCSSCCNC(=O)[C@H](Cc2c[nH]c3cc(Cl)ccc23)N1 [X-Cop-N-Aeg-Cl-Trp + Acid 107]	0.00455
O=C1CN(CCNC(=O)C2COc3ccccc3O2)C(=O)[C@@H]2CN(CCO2)C(=O)CCSSCCNC(=O)[C@H](Cc2c[nH]c3cc(Cl)ccc23)N1 (stereo partly shown) [X-Cop-N-Aeg-Cl-Trp + Acid 115]	0.021
O=C1CN(CCNC(=O)c2ccc(Cl)s2)C(=O)[C@@H]2CN(CCO2)C(=O)CCSSCCNC(=O)[C@@H](Cc2c[nH]c3ccccc23)N1 [X-Cop-N-Aeg-D-Trp + Acid 14]	-0.012
O=C(/C=C/c1ccc(Cl)cc1)NCCN1CC(=O)N[C@H](Cc2c[nH]c3ccccc23)C(=O)NCCSSCCC(=O)N2CCO[C@@H](C2)C1=O [X-Cop-N-Aeg-D-Trp + Acid 108]	0.015
O=C1CN(CCNC(=O)C2COc3ccccc3O2)C(=O)[C@@H]2CN(CCO2)C(=O)CCSSCCNC(=O)[C@@H](Cc2c[nH]c3ccccc23)N1 (stereo partly drawn) [X-Cop-N-Aeg-D-Trp + Acid 115]	-0.00533
Cn1cc(C[C@@H]2NC(=O)CN(CCNC(=O)c3ccc(Cl)cc3)C(=O)[C@@H]3CN(CCO3)C(=O)CCSSCCNC2=O)c2ccccc21 [X-Cop-N-Aeg-Me-Trp + Acid 25]	0.028
Cn1cc(C[C@@H]2NC(=O)CN(CCNC(=O)c3ccc4ccccc4c3)C(=O)[C@@H]3CN(CCO3)C(=O)CCSSCCNC2=O)c2ccccc21 [X-Cop-N-Aeg-Me-Trp + Acid 107]	0.00455
Cn1cc(C[C@@H]2NC(=O)CN(CCNC(=O)/C=C/c3ccc(Cl)cc3)C(=O)[C@@H]3CN(CCO3)C(=O)CCSSCCNC2=O)c2ccccc21 [X-Cop-N-Aeg-Me-Trp + Acid 108]	0.021
Cn1cc(C[C@@H]2NC(=O)CN(CCNC(=O)c3cccc(Oc4ccccc4)c3)C(=O)[C@@H]3CN(CCO3)C(=O)CCSSCCNC2=O)c2ccccc21 [X-Cop-N-Aeg-Me-Trp + Acid 111]	-0.00533

Further lines, results first:

fraction of fluorescent probe displaced	Compound
0.028	Cn1cc(C[C@@H]2NC(=O)CN(CCNC(=O)/C=C/c3ccc4ccccc4c3)C(=O)[C@@H]3CN(CCO3)C(=O)CCSSCCNC2=O)c2ccccc21 [X-Cop-N-Aeg-Me-Trp + Acid 112]
-0.012	Cn1cc(C[C@@H]2NC(=O)CN(CCNC(=O)CCS(=O)(=O)c3ccccc3)C(=O)[C@@H]3CN(CCO3)C(=O)CCSSCCNC2=O)c2ccccc21 [X-Cop-N-Aeg-Me-Trp + Acid 114]
-0.025	CN1C(=O)CN(CCNC(=O)c2ccc(Cl)s2)C(=O)[C@@H]2CN(CCO2)C(=O)CCSSCCNC(=O)[C@@H]1Cc1c[nH]c2ccccc12 [X-Cop-N-Aeg-NMe-Trp + Acid 14]
0.021	CN1C(=O)CN(CCNC(=O)c2ccc(Cl)cc2)C(=O)C2CN(CCO2)C(=O)CCSSCCNC(=O)C1Cc1c[nH]c2ccccc12 (stereo not shown) [X-Cop-N-Aeg-NMe-Trp + Acid 25]
0.015	CN1C(=O)CN(CCNC(=O)/C=C/c2ccc3ccccc3c2)C(=O)[C@@H]2CN(CCO2)C(=O)CCSSCCNC(=O)[C@@H]1Cc1c[nH]c2ccccc12 [X-Cop-N-Aeg-NMe-Trp + Acid 112]
0.055	O=C1CN(CCNC(=O)c2ccc(Cl)cc2)C(=O)C2CN(CCO2)C(=O)CCSSCCNC(=O)C(Cc2c[nH]c3ccccc23)N1 (stereo not shown) [X-Cop-N-Aeg-Trp + Acid 25]
0.00455	O=C1CN(CCNC(=O)c2ccc3ccccc3c2)C(=O)[C@@H]2CN(CCO2)C(=O)CCSSCCNC(=O)[C@H](Cc2c[nH]c3ccccc23)N1 [X-Cop-N-Aeg-Trp + Acid 107]
0.015	O=C(/C=C/c1ccc(OCc2ccccc2)cc1)NCCN1CC(=O)N[C@@H](Cc2c[nH]c3ccccc23)C(=O)NCCSSCCC(=O)N2CCO[C@@H](C2)C1=O [X-Cop-N-Aeg-Trp + Acid 110]
0.028	O=C(/C=C/c1ccc2ccccc2c1)NCCN1CC(=O)N[C@@H](Cc2c[nH]c3ccccc23)C(=O)NCCSSCCC(=O)N2CCO[C@@H](C2)C1=O [X-Cop-N-Aeg-Trp + Acid 112]
-0.012	O=C1CN(CCNC(=O)C2COc3ccccc3O2)C(=O)[C@@H]2CN(CCO2)C(=O)CCSSCCNC(=O)[C@H](Cc2c[nH]c3ccccc23)N1 (stereo partly shown) [X-Cop-N-Aeg-Trp + Acid 115]
-0.019	O=C(NC[C@H]1NC(=O)[C@H]2CCCN(C2)C(=O)CCSSCCNC(=O)[C@H](Cc2cccc3ccccc23)NC1=O)c1ccc(Cl)s1 [X-Nip-D-Dap-1-NaI + Acid 14]
0.015	O=C(NC[C@H]1NC(=O)[C@H]2CCCN(C2)C(=O)CCSSCCNC(=O)[C@H](Cc2cccc3ccccc23)NC1=O)c1ccc(Cl)cc1 [X-Nip-D-Dap-1-NaI + Acid 25]
0.00455	O=C(NC[C@H]1NC(=O)[C@H]2CCCN(C2)C(=O)CCSSCCNC(=O)[C@H](Cc2cccc3ccccc23)NC1=O)c1ccc2ccccc2c1 [X-Nip-D-Dap-1-NaI + Acid 107]
0.021	O=C(/C=C/c1ccc2ccccc2c1)NC[C@H]1NC(=O)[C@H]2CCCN(C2)C(=O)CCSSCCNC(=O)[C@H](Cc2cccc3ccccc23)NC1=O [X-Nip-D-Dap-1-NaI + Acid 112]
0.00133	CC(Oc1cccc(Cl)c1)C(=O)NC[C@H]1NC(=O)[C@H]2CCCN(C2)C(=O)CCSSCCNC(=O)[C@H](Cc2cccc3ccccc23)NC1=O (stereo partly drawn) [X-Nip-D-Dap-1-NaI + Acid 113]
-0.00533	O=C(CCS(=O)(=O)c1ccccc1)NC[C@H]1NC(=O)[C@H]2CCCN(C2)C(=O)CCSSCCNC(=O)[C@H](Cc2cccc3ccccc23)NC1=O [X-Nip-D-Dap-1-NaI + Acid 114]
0.021	O=C(NC[C@H]1NC(=O)[C@H]2CCCN(C2)C(=O)CCSSCCNC(=O)[C@H](Cc2cccc3ccccc23)NC1=O)C1COc2ccccc2O1 (stereo partly drawn) [X-Nip-D-Dap-1-NaI + Acid 115]
0.021	O=C(/C=C/c1ccc(Cl)cc1)NC[C@H]1NC(=O)[C@H]2CCCN(C2)C(=O)CCSSCCNC(=O)[C@H](Cc2ccc3ccccc3c2)NC1=O [X-Nip-D-Dap-2-Nal + Acid 108]
0.008	O=C(/C=C/c1ccc(OCc2ccccc2)cc1)NC[C@H]1NC(=O)[C@H]2CCCN(C2)C(=O)CCSSCCNC(=O)[C@H](Cc2ccc3ccccc3c2)NC1=O [X-Nip-D-Dap-2-Nal + Acid 110]
0.00133	O=C(NC[C@H]1NC(=O)[C@H]2CCCN(C2)C(=O)CCSSCCNC(=O)[C@H](Cc2ccc3ccccc3c2)NC1=O)c1cccc(Oc2ccccc2)c1 [X-Nip-D-Dap-2-Nal + Acid 111]
0.008	O=C(/C=C/c1ccc2ccccc2c1)NC[C@H]1NC(=O)[C@H]2CCCN(C2)C(=O)CCSSCCNC(=O)[C@H](Cc2ccc3ccccc3c2)NC1=O [X-Nip-D-Dap-2-Nal + Acid 112]

Same assay, conditions: Panel c, Library 4: best nine scaffolds and 15 additional carboxylic acids; displacement of fluorescent probe

fraction of fluorescent probe displaced	Compound
0.118	O=C(C=Cc1cccc(C(F)(F)F)c1)NCC1NC(=O)C2CN(CCO2)C(=O)CCSSCCNC(=O)C(Cc2c[nH]c3ccccc23)NC1=O (stereo not drawn) [X-Cop-Dap-Trp + Acid 122]
